# In the NIST ThermoML archive (doi:10.1016/j.fluid.2012.09.027):
# ± gives the expanded uncertainty stated by the source.
# Experiments:
# [1] = Crystal; DTA
# [2] = Molar enthalpy of transition or fusion; conditions: Crystal; DSC
smiles,measurement,setting,value
CCOc1nc2cccc(C(=O)OC(C)OC(=O)OC3CCCCC3)c2n1Cc1ccc(-c2ccccc2)c(-c2nnn[nH]2)c1 (configuration not stated),Normal melting temperature,[1],169 ± 1 °C
same,Molar enthalpy of transition or fusion,[2],6.63 ± 0.189 kcal/mol
